Data reported in patent US12649723B2, “Carbonohydrazonoyl dicyanide compounds comprising 2 or more aryl or heteroaryl connected via linker and use thereof” (KOREA INSTITUTE OF SCIENCE AND TECHNOLOGY, priority 2020, dated 2026).

Assays:
[1] = biological target: T1, CYP2C9 (Homo sapiens, UniProt P11712); assay: Inhibitory effect on CYP coenzyme activity, human liver microsomes; assay type: in vitro ADME; details: compound 10 μM; human liver microsomes 0.25 mg/mL; substrate diclofenac; 15 minutes
T1 construct: human liver microsomes (0.25 mg/mL); from tissue; host or cells: human liver microsomes
T1 sequence (P11712 whole entry): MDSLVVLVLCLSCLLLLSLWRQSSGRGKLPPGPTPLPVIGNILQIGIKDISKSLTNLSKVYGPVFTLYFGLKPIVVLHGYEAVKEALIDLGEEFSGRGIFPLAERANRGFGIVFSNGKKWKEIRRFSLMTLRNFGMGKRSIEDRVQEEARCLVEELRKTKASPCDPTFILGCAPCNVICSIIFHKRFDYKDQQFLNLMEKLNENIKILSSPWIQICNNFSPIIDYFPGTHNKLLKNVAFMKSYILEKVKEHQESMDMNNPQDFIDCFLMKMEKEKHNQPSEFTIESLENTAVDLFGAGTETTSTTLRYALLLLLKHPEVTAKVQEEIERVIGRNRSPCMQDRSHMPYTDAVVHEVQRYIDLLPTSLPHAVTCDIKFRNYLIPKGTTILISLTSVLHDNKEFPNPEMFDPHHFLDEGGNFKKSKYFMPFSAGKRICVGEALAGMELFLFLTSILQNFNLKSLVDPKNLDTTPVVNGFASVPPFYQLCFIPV
Procedure: (§1) The inhibitory effects of the compounds prepared according to Examples 1 to 175 on CYP coenzyme activity were identified. Specifically, human liver microsomes (0.25 mg/mL), a 0.1 M phosphate buffer solution (pH 7.4), a substrate drug cocktail of five types of drug metabolism enzymes (50 μM phenacetin, 10 μM diclofenac, 100 μM S-mephenytoin, 5 μM dextromethorphan, and 2.5 μM midazolam), and the compound at a concentration of 0 μM or 10 μM were mixed and pre-cultured at 37° C. for 5 minutes, and then further cultured at 37° C. for 15 minutes together with an NADPH generation system solution added thereto. Thereafter, the reaction was terminated by adding an acetonitrile solution containing an internal standard material (terfenadine) and centrifuged for 5 minutes (14,000 rpm, 4° C.), and then a supernatant was injected into an LC-MS/MS system for simultaneous analysis of metabolites of the substrate drugs to thereby evaluate the inhibitory effects on drug metabolism.
(§2) Metabolites of each CYP coenzyme indicator drug generated through the reaction were analyzed using the Shimadzu Nexera XR system and TSQ Vantage (Thermo). In an HPLC column, Kinetex C18 (2.1 mm×100 mm, 2.6 μm, particle size; Phenomenex, USA) was used, and mobile phases were (A) distilled water containing 0.1% formic acid and (B) acetonitrile containing 0.1% formic acid, and a gradient program shown in Table 3 was applied thereto.
(§3) The generated metabolites were quantified using a multiple reaction monitoring (MRM) quantification mode, and Xcalibur (version 1.6.1) was used for data analysis. Inhibitory effects of the novel compound prepared according to the examples of the present invention on CYP coenzyme activity are shown in Table 4 below.

[2] = biological target: T2, CYP1A2 (Homo sapiens, UniProt P05177); assay: as above; assay type: in vitro ADME; details: compound 10 μM; human liver microsomes 0.25 mg/mL; substrate phenacetin; 15 minutes
T2 construct: human liver microsomes (0.25 mg/mL); from tissue; host or cells: human liver microsomes
T2 sequence (P05177 1-516): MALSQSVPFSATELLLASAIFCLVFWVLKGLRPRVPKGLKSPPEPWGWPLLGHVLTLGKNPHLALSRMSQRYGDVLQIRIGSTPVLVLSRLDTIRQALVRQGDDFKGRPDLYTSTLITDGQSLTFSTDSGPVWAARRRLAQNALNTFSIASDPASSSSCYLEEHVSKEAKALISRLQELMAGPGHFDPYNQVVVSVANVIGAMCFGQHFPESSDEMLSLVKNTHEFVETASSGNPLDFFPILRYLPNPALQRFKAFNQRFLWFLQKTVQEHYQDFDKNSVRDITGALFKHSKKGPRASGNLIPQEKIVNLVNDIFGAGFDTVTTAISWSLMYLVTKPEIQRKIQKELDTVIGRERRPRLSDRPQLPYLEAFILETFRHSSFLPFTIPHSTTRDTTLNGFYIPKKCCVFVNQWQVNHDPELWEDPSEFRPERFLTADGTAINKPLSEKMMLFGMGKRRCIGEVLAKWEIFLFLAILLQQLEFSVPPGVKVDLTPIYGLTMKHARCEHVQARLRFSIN
Procedure: as §1, §2, §3

[3] = biological target: T3, CYP2D6 (Homo sapiens, UniProt P10635); assay: as above; assay type: in vitro ADME; details: compound 10 μM; human liver microsomes 0.25 mg/mL; substrate dextromethorphan; 15 minutes
T3 construct: human liver microsomes (0.25 mg/mL); from tissue; host or cells: human liver microsomes
T3 sequence (P10635 whole entry): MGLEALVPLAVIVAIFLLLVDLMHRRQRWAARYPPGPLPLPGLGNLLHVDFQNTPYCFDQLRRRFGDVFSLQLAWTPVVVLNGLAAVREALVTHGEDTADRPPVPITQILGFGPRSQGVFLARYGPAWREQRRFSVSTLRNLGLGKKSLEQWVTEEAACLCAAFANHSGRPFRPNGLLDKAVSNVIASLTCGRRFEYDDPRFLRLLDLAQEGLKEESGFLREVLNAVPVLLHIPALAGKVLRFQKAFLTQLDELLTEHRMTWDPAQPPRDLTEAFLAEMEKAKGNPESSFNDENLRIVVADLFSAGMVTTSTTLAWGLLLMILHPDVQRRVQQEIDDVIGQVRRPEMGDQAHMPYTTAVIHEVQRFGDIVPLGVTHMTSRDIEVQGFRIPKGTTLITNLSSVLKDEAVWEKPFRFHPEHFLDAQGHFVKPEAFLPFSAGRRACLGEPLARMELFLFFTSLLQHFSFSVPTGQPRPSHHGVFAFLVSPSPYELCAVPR
Procedure: as §1, §2, §3

[4] = biological target: T4, CYP2C19 (Homo sapiens, UniProt P33261); assay: as above; assay type: in vitro ADME; details: compound 10 μM; human liver microsomes 0.25 mg/mL; substrate S-mephenytoin; 15 minutes
T4 construct: human liver microsomes (0.25 mg/mL); from tissue; host or cells: human liver microsomes
T4 sequence (P33261 whole entry): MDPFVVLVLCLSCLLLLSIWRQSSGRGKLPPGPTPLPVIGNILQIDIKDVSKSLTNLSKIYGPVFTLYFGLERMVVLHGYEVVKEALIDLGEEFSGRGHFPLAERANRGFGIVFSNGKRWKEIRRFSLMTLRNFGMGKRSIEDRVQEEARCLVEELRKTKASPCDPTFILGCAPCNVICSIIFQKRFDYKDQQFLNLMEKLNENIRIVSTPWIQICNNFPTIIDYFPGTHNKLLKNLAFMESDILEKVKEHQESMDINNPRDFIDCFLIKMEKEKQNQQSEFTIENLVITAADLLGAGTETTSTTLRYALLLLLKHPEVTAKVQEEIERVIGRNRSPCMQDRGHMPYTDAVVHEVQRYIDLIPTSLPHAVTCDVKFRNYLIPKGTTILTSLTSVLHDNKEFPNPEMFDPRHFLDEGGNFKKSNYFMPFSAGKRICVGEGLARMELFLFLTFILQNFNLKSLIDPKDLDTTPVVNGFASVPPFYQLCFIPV
Procedure: as §1, §2, §3

[5] = biological target: T5, CYP3A4 (Homo sapiens, UniProt P08684); assay: as above; assay type: in vitro ADME; details: compound 10 μM; human liver microsomes 0.25 mg/mL; substrate midazolam; 15 minutes
T5 construct: human liver microsomes (0.25 mg/mL); from tissue; host or cells: human liver microsomes
T5 sequence (P08684 whole entry): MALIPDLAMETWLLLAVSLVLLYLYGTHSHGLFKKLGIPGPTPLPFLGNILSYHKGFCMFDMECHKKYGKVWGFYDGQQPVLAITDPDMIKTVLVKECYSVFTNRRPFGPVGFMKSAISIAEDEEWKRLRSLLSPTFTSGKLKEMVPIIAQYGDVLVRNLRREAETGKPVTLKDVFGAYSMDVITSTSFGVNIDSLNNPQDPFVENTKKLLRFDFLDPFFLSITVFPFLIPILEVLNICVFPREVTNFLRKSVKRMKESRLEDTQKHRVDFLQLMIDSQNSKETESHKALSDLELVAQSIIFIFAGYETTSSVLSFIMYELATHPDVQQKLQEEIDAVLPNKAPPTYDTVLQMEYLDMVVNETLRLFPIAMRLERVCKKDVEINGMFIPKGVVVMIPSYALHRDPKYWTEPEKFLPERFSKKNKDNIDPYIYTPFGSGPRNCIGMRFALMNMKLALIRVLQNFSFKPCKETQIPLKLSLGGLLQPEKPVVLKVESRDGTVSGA
Procedure: as §1, §2, §3

[6] = Liver microsome stability; assay type: in vitro ADME, rat; details: amount of substrate remaining; compound 1 μM, 30 minutes, 37° C., NADPH
How it was run: (§4)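 Human, dog, rat and mouse liver microsomes (0.25 mg/mL) with 1 μM compound in 0.1 M phosphate buffer pH 7.4, preincubated 5 min at 37° C, then incubated 30 min at 37° C with NADPH-generating system. Reaction stopped with acetonitrile containing internal standard; remaining parent quantified by LC-MS/MS.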

[7] = Liver microsome stability; assay type: in vitro ADME, mouse; details: amount of substrate remaining; compound 1 μM, 30 minutes, 37° C., NADPH
How it was run: as §4

[8] = test system: Tau-BiFC cells; assay: Cell viability (cytotoxicity) in tau-BiFC cells, count of stained nuclei; assay type: cell-based; details: compound 10 μM; Forskolin-only group = 100% cell viability
How it was run: (§5)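 Tau-BiFC cells were exposed for 48 h to compound (1, 3, 10 μM for screening; 0.03–30 μM for dose-response) plus 30 μM Forskolin to induce aggregation. BiFC fluorescence was normalised to Forskolin-only minus untreated controls, with IC50 from nonlinear regression. Viability was Hoechst-stained nuclei counts relative to Forskolin-only wells.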

[9] = Liver microsome stability; assay type: in vitro ADME, dog; details: amount of substrate remaining; compound 1 μM, 30 minutes, 37° C., NADPH
Procedure: The stability of liver microsomes due to the compounds prepared according to Examples 1 to 175 was confirmed. Specifically, four types of liver microsomes (human, dog, rat, and mouse, each 0.25 mg/mL), a 0.1 M phosphate buffer solution (pH 7.4), and each of the compounds at a concentration of 1 μM were mixed and pre-cultured at 37° C. for 5 minutes and further cultured at 37° C. for 30 minutes together with an NADPH generation system solution added thereto. Thereafter, the reaction was terminated by adding an acetonitrile solution containing an internal standard material (chloropropamide) and centrifuged for 5 minutes (14,000 rpm, 4° C.), and then a supernatant was injected into an LC-MS/MS system for analysis of substrate drugs to thereby evaluate metabolic stability due to 8 types of compounds.
The amount of the substrate remaining after the reaction was analyzed using the Shimadzu Nexera XR system and TSQ Vantage (Thermo). In an HPLC column, Kinetex XB-C18 (2.1 mm×100 mm, particle size of 2.6 μm; Phenomenex, USA) was used, and mobile phases were (A) distilled water containing 0.1% formic acid and (B) acetonitrile containing 0.1% formic acid. Analyst software (version 1.6.3) and Xcalibur (version 1.6.1) were used for data analysis.

[10] = Liver microsome stability; assay type: in vitro ADME, human; details: amount of substrate remaining; compound 1 μM, 30 minutes, 37° C., NADPH
How it was run: as §4

[11] = biological target: T6, tau protein (Homo sapiens, UniProt P10636); assay: Tau-BiFC cell model: inhibition of tau protein aggregation; assay type: cell-based; details: for remaining activity at 10 µM: 48 h, compound 10 μM, BiFC fluorescence, Forskolin-only group = 100% tau protein-aggregated state, read-out: Response (% @10 μM); for IC50: Tau BiFC in cells, with Forskolin 30 μM, 48 hours
T6 construct: fused on or other part: Split fluorescent-protein halves for BiFC are fused to tau; In the published tau-BiFC line these are Venus VN173 and VC155
T6 sequence (P10636 2-441 isoform P10636-8 limits assumed): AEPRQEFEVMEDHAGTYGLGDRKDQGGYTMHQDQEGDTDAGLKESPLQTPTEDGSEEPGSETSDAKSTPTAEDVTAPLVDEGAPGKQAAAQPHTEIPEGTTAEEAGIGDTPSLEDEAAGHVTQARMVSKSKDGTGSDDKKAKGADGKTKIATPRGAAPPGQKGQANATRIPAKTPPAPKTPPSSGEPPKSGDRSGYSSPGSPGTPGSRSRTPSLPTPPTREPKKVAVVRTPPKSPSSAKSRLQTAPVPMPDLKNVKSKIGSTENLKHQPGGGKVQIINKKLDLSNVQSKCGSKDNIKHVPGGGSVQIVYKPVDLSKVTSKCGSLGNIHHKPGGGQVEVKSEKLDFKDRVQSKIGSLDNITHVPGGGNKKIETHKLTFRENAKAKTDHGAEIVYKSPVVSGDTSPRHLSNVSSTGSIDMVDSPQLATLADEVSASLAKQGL
How it was run: as §5

Row | Compound | CYP2C9 [1] | CYP1A2 [2] | CYP2D6 [3] | CYP2C19 [4] | CYP3A4 [5] | Rat (%) [6] [%] | Mouse (%) [7] [%] | Cell viability (% @10 μM) [8] [%] | Dog (%) [9] [%] | Human (%) [10] [%] | remaining activity at 10 µM [11] [%] | IC50 [11] [nM]
1 | Cc1cnc(C(=O)Nc2ccc(NN=C(C#N)C#N)c(F)c2)cn1 [Compound 3, (2-fluoro-4-(5-methylpyrazine-2-carboxamido)phenyl)carbonohydrazonoyl dicyanide] | 61.9 | 85.6 | 83.6 | 78.2 | 80.8 | 72.6 | 46.1 | 62.1 | 75.4 | 95.7 | 0 | 30
2 | Cc1cnc(C(=O)Nc2ccc(NN=C(C#N)C#N)c(C)c2)cn1 [Compound 6, (2-methyl-4-(5-methylpyrazine-2-carboxamido)phenyl)carbonohydrazonoyl dicyanide] | 38 | 85.2 | 75.7 | 64.8 | 62.2 | 88.4 | 74.8 | 61.3 | >100 | 77.5 | 43.9 | 
3 | N#CC(C#N)=NNc1ccc(NC(=O)c2ccc(F)cc2)nc1 [Compound 16, (6-(4-fluorobenzamido)pyridin-3-yl)carbonohydrazonoyl dicyanide] | 40.3 | 71.4 | 80.8 | 78.6 | 86.9 | 61 | 67.3 | 66.2 | 59.5 | 91.6 | 0 | 110
4 | Cc1cc(F)cc(C(=O)Nc2ccc(NN=C(C#N)C#N)cn2)c1 [Compound 19, (6-(3-fluoro-5-methylbenzamido)pyridin-3-yl)carbonohydrazonoyl dicyanide] | 14.6 | 55.1 | 73 | 73.1 | 76.5 | 51.4 | 62.3 | 119.1 | 78.8 | 84.8 | 0 | 270
5 | Cc1cccc(C(=O)Nc2ccc(NN=C(C#N)C#N)cn2)c1F [Compound 20, (6-(2-fluoro-3-methylbenzamido)pyridin-3-yl)carbonohydrazonoyl dicyanide] | 22.3 | 69.4 | 75.8 | 72 | 76.1 | 33.7 | 68.3 | 110.4 | >100 | 91.9 | 0 | 180
6 | N#CC(C#N)=NNc1ccc(NC(=O)c2ccc(C(F)(F)F)cc2)nc1 [Compound 27, (6-(4-(trifluoromethyl)benzamido)pyridin-3-yl)carbonohydrazonoyl dicyanide] | 23.7 | 76.8 | 76 | 78.3 | >100 | 8.8 | 5.4 | 122 | 3.6 | 86.9 | 0 | 370
7 | N#CC(C#N)=NNc1ccc(NC(=O)c2cccs2)nc1 [Compound 30, (6-(thiophene-2-carboxamido)pyridin-3-yl)carbonohydrazonoyl dicyanide] | 62.9 | 83.9 | 89.9 | 81.5 | 95.2 | 72.4 | 70.7 | 145 | 84.7 | 94.8 | 0 | 80
